≈ marks a conversion by molar mass, not a printed value. Where two headings read alike, the source gives them in different places.
How the values were obtained:
MDA-MB-231 cells = assay: CellTiter-Glo Luminescent Cell Viability Assay on ER-negative breast cancer MDA-MB-231 cells; format: cell-based; settings: average ± standard deviation when tested more than 3 times, read-out: Inhibition of the viability of breast cancer cells, IC50
Method in brief: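 Cells seeded at 6×10^3 per well in DMEM with 10% FCS and exposed 72 h to compound at 0 to 100 μM (twelve concentrations, DMSO vehicle). Viability measured by CellTiter-Glo luminescence.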

MCF7 cells = assay: CellTiter-Glo Luminescent Cell Viability Assay on ER-positive breast cancer MCF-7 cells; format: cell-based, human; settings: average ± standard deviation when tested more than 3 times, read-out: Inhibition of the viability of breast cancer cells, IC50
Method in brief: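 MCF7 cells (DMEM, 10% FCS, 37 °C) treated 72 h with compound at 0–100 μM (0.3, 0.5, 1, 2, 3, 5, 10, 20, 30, 50, 100 μM). Viability measured by CellTiter-Glo luminescence.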

SK-OV3 cells = assay: CellTiter-Glo Luminescent Cell Viability Assay on ovary cancer SK-OV3 cells; format: cell-based; settings: read-out: Inhibition of the viability of ovary cancer cells, IC50
Procedure: C: In Vitro CellTiter-Glo® Luminescent Cell Viability Assay on Ovary Cancer SK-OV3 Cells
(§1) The ovary cancer SK-OV3 cells were obtained from Cancer hospital, Chinese Academy of Medical Sciences and maintained in RPMI-1640 and 10% fetal calf serum at 37° C., under 5% CO2 atmosphere. The cells were seeded on 96-well plate at a density of 6×10^3 cells per well. SK-OV3 cells were treated with a test compound dissolved in DMSO at the concentrations of zero, 0.3 μM, 0.5 μM, 1 μM, 2 μM, 3 μM, 5 μM, 10 μM, 20 μM, 30 μM, 50 μM and 100 μM for 72 hours. Treated cells were examined by CellTiter-Glo® Luminescent Cell Viability Assay Kit (Promega), and luminescence values were recorded with Envision.

CoC1 cells = assay: CellTiter-Glo Luminescent Cell Viability Assay on ovary cancer CoC1 cells; format: cell-based; settings: 72 hours, read-out: Inhibition of the viability of ovary cancer cells, IC50
Procedure: B: In Vitro CellTiter-Glo® Luminescent Cell Viability Assay on Ovary Cancer CoC1 Cells
as §1, with “CoC1” for “SK-OV3”, “10” for “10 μM, 20”

HO8910 cells = assay: CellTiter-Glo Luminescent Cell Viability Assay on ovary cancer HO8910 cells; format: cell-based; settings: HO-8910 cells; 72 hours; read-out: Inhibition of the viability of ovary cancer cells, IC50
Procedure: A: In Vitro CellTiter-Glo® Luminescent Cell Viability Assay on Ovary Cancer HO8910 Cells
as §1, with “Ovary” for “The ovary”, “HO8910” for “SK-OV3”, “Type Culture Collection of the” for “Cancer hospital,”, “Sciences, Shanghai,” for “Medical Sciences”

K562 cells = assay: CellTiter-Glo Luminescent Cell Viability Assay on leukemia K562 cells; format: cell-based, human; settings: 72 hours, read-out: Inhibition of the viability of leukemia cells, IC50
Procedure: A: In Vitro CellTiter-Glo® Luminescent Cell Viability Assay on Leukemia K562 Cells
as §1, with “leukemia K562” for “ovary cancer SK-OV3”, “ATCC” for “Cancer hospital, Chinese Academy of Medical Sciences”, “IMDM” for “RPMI-1640”, “K562” for “SK-OV3”

HL-60 cells = assay: CellTiter-Glo Luminescent Cell Viability Assay on leukemia HL-60 cells; format: cell-based, human; settings: 72 hours, read-out: Inhibition of the viability of leukemia cells, IC50
Procedure: B: In Vitro CellTiter-Glo® Luminescent Cell Viability Assay on Leukemia HL-60 Cells
as §1, with “leukemia HL-60” for “ovary cancer SK-OV3”, “ATCC” for “Cancer hospital, Chinese Academy of Medical Sciences”, “IMDM” for “RPMI-1640”, “HL-60” for “SK-OV3”

Molt-4 cells = assay: CellTiter-Glo Luminescent Cell Viability Assay on leukemia Molt-4 cells; format: cell-based; settings: 72 hours, read-out: Inhibition of the viability of leukemia cells, IC50
Procedure: C: In Vitro CellTiter-Glo® Luminescent Cell Viability Assay on Leukemia Molt-4 Cells
as §1, with “leukemia Molt-4” for “ovary cancer SK-OV3”, “ATCC” for “Cancer hospital, Chinese Academy of Medical Sciences”, “[…]” for “SK-OV3”

Hep3B2.1-7 cells = assay: MTT assay, in vitro growth of liver cancer Hep3B2.1-7 cells; format: cell-based; settings: 72 hours; for IC50: read-out: Inhibition on liver cancer cells, IC50
Procedure: The liver cancer Hep3B2.1-7 cells were obtained from ATCC. Cells were incubated in 1640 culture medium with 5% fetal calf serum and 100 U/ml double-antibody in a cell incubator at 37° C., 5% CO2 atmosphere and passaged via conventional methods. The sample was dissolved in DMSO, formulated into 50 mg/ml stocking solution, and stored at 4° C. The test solutions at 50, 25, 12.5 and 6.25 μg/ml were formulated with culture medium immediately before use.
The adherent cells were digested with cell digestive solution, and then the exfoliated cells were collected and counted. The cell suspension was formulated with 1640 culture medium containing 5% fetal calf serum (5.0×10^4/ml). The cell suspension was seeded on 96-well plate with 100 μl/well, and maintained in a cell incubator at 37° C., 5% CO2 atmosphere for 24 hours. After that, the compounds at various concentrations were added, where solvent was taken as negative control and Taxol as positive control. 10 μl MTT (5 mg/ml) was added after 72 hours. The supernatant was removed after cultivation for 3 hours more, 150 μl DMSO was added and the formazan was dissolved on shaking. OD values were measured at 570 nm after homogeneous mixing, and inhibition rate and IC50 values were calculated based on the mean of OD values from 3 wells.

[1] = Homo sapiens, SK-OV-3, 72 hours

IC50 (MDA-MB-231 cells; Homo sapiens, MDA-MB-231, 72 h) | IC50 (MCF7 cells; Homo sapiens, MCF7, 72 h) | IC50 (SK-OV3 cells; [1]) | IC50 (CoC1 cells) | IC50 (HO8910 cells) | IC50 (K562 cells; Homo sapiens) | IC50 (HL-60 cells; Homo sapiens) | IC50 (Molt-4 cells; Homo sapiens) | IC50 (Hep3B2.1-7 cells) | IC50 (MDA-MB-231 cells; 72 hours) | IC50 (MCF7 cells; 72 hours) | IC50 (SK-OV3 cells; 72 hours) | IC50 (K562 cells) | IC50 (HL-60 cells) | IC50 (Molt-4 cells) | Inhibition on liver cancer cells, IC50 (Hep3B2.1-7 cells) | SMILES
11.3 ± 1.38 µM | 6.51 ± 1.42 µM | 7.22 µM | 5.19 µM | 15.7 µM | > 100 µM | > 100 µM | > 100 µM | – | – | – | – | – | – | – | – | COc1c(-c2cc(F)cc(F)c2)oc2c(CC=C(C)C)c(O)c(CC=C(C)C)c(O)c2c1=O [Compound 2, 2-(3,5-difluorophenyl)-5,7-dihydroxy-3-methoxy-6,8-di(3-methyl-2-buten-1-yl)-4H-benzopyran-4-one]
6.37 ± 0.03 µM | 4.95 ± 0.65 µM | 6.42 µM | – | 14 µM | 8.65 µM | 10.1 µM | 10.3 µM | 1.38 µg/mL (≈ 3.02 µM) | – | – | – | – | – | – | – | COc1c(-c2ccc(F)c(F)c2)oc2c(CC=C(C)C)c(O)c(CC=C(C)C)c(O)c2c1=O [Compound 4, 2-(3,4-difluorophenyl)-5,7-dihydroxy-3-methoxy-6,8-di(3-methyl-2-buten-1-yl)-4H-benzopyran-4-one]
10.9 ± 2.22 µM | 12.6 ± 0.68 µM | > 100 µM | > 100 µM | 21.6 µM | – | – | – | 1.09 µg/mL (≈ 2.49 µM) | – | – | – | – | – | – | – | COc1c(-c2ccc(F)cc2)oc2c(CC=C(C)C)c(O)c(CC=C(C)C)c(O)c2c1=O [Compound 7, 2-(4-fluorophenyl)-5,7-dihydroxy-3-methoxy-6,8-di(3-methyl-2-buten-1-yl)-4H-benzopyran-4-one]
– | – | – | 11.8 µM | 22.3 µM | – | – | – | – | 9.96 ± 1.97 µM | 8.58 ± 0.24 µM | 24.3 µM | 12.8 µM | 17.9 µM | 15.3 µM | 1.46 µg/mL | COc1c(-c2ccc(F)c(Cl)c2)oc2c(CC=C(C)C)c(O)c(CC=C(C)C)c(O)c2c1=O [Compound 8, 2-(3-chloro-4-fluorophenyl)-5,7-dihydroxy-3-methoxy-6,8-di(3-methyl-2-butylene-1-yl)-4H-benzopyran-4-one]
17.3 ± 6.5 µM | 9.19 ± 2.47 µM | 12.6 µM | 14.3 µM | > 100 µM | > 100 µM | > 100 µM | > 100 µM | – | – | – | – | – | – | – | – | COc1c(-c2cncs2)oc2c(CC=C(C)C)c(O)c(CC=C(C)C)c(O)c2c1=O [Compound 25, 2-(thiazol-5-yl)-5,7-dihydroxy-3-methoxy-6,8-di(3-methyl-2-buten-1-yl)-4H-benzopyran-4-one]
12.8 ± 1.78 µM | 11 ± 1.34 µM | 40.1 µM | 17.8 µM | 24.3 µM | – | – | – | – | – | – | – | – | – | – | – | COc1ccc(-c2oc3c(CC=C(C)C)c(O)c(CC=C(C)C)c(O)c3c(=O)c2OC)cn1 [Compound 26, 2-(6-methoxypyridin-3-yl)-5,7-dihydroxy-3-methoxy-6,8-di(3-methyl-2-buten-1-yl)-4H-benzopyran-4-one]
10.3 ± 0.56 µM | 6.17 ± 0.05 µM | 7.23 µM | 9.23 µM | 17.6 µM | – | – | – | – | – | – | – | – | – | – | – | COc1cc(-c2oc3c(CC=C(C)C)c(O)c(CC=C(C)C)c(O)c3c(=O)c2OC)ccn1 [Compound 27, 2-(2-methoxypyridin-4-yl)-5,7-dihydroxy-3-methoxy-6,8-di(3-methyl-2-buten-1-yl)-4H-benzopyran-4-one]
3.64 µM | 5.33 µM | – | – | – | – | – | – | 8.23 µg/mL (≈ 18.1 µM) | – | – | – | – | – | – | – | COc1c(-c2ccc(O)c(F)c2)oc2c(CC=C(C)C)c(O)c(CC=C(C)C)c(O)c2c1=O [Compound 79, 2-(3-fluoro-4-hydroxyphenyl)-5,7-dihydroxy-3-methoxy-6,8-di(3-methyl-2-buten-1-yl)-4H-benzopyran-4-one]
11.3 ± 0.86 µM | 10.6 ± 3.06 µM | – | – | – | > 100 µM | > 100 µM | > 100 µM | – | – | – | – | – | – | – | – | COc1c(-c2ccc(F)c(F)c2)oc2c(CC=C(C)C)c(O)c(CC=C(C)C)c(OC)c2c1=O [Compound 83, 2-(3,4-difluorophenyl)-7-hydroxy-3,5-dimethoxy-6,8-di(3-methyl-2-buten-1-yl)-4H-benzopyran-4-one]
13.5 µM | 6.89 µM | 15.7 µM | 23.4 µM | 23.4 µM | – | – | – | – | – | – | – | – | – | – | – | COc1c(-c2ccc(Cl)c(F)c2)oc2c(CC=C(C)C)c(O)c(CC=C(C)C)c(OC)c2c1=O [Compound 84, 2-(3-fluoro-4-chlorophenyl)-7-hydroxy-3,5-dimethoxy-6,8-di(3-methyl-2-buten-1-yl)-4H-benzopyran-4-one]
– | – | – | > 100 µM | > 100 µM | – | – | – | – | 10.7 ± 1.38 µM | 8.98 µM | > 100 µM | – | – | – | – | COc1ccc(-c2cc(=O)c3c(O)c(CC=C(C)C)c(O)c(CC=C(C)C)c3o2)cc1Cl [Compound 90, 2-(3-chloro-4-trimethoxyphenyl)-5,7-dihydroxy-6,8-di(3-methyl-2butylene-1-yl)-4H-benzopyran-4-one]

From US9090583B2, “Benzopyrone estrogen receptor regulator” (BEIJING SHENOGEN PHARMA GROUP LTD., priority 2010, dated 2015)
